According to patent US9233095B2, “Small molecule RNase inhibitors and methods of use” (University of Rochester, priority 2011, dated 2016):

How the values were obtained:
S. aureus (MSSA) = assay: CLSI broth microdilution MIC; type: cell-based, Staphylococcus aureus; conditions: strain UAMS-1, the strain's MIC used for time-kill assays
Text: In some examples, compounds can be further assayed using the Mueller Hinton (MH) broth antibacterial assay as specified by the Clinical and Laboratory Standards Institute MIC broth microdilution protocol (see Methods for Dilution Antimicrobial Susceptibility Tests for Bacteria That Grow Aerobically; Approved Standard, In The Clinical and Laboratory Standards Institute (CLSI, formerly NCCLS), 7th ed., January 2006, 26 (2), M7-A7; see also Performance Standards for Antimicrobial Susceptibility Testing; Eighteenth Informational Supplement, In The Clinical and Laboratory Standards Institute (CLSI, formerly NCCLS), January 2008, 28 (1), M100-S18).
With the exception of RN4220-derivatives, in vitro activities of RNPA1000 against bacteria were determined by the broth microdilution method according to the Clinical and Laboratory Standards Institute (CLSI) guidelines using cation adjusted Mueller-Hinton broth or MH broth supplemented with 5% lysed horse blood (for testing Streptotococcus spp.). Microtiter plates containing serial dilutions of RNPA1000 (0, 4, 8, 16, 32, 64, and 128 μg/ml) were inoculated with 10^5 colony forming units (CFU)/ml and incubated for 18 hr at 37° C. […] The MIC value for each S. aureus strain was determined to be the median score of replicate measurements (n=5). Wells containing concentrations of RNPA1000≧MIC were plated for minimal bactericidal measurement. Where possible, experiments with VRSA strains were performed in a laminar flow hood to minimize potential for equipment contamination. For RN4220 cells containing plasmid vector (pCN51), RnpA overproducing plasmid (pRNPA-S) or RnpA underproducing plasmid (pRNPA-A.S.) in vitro antimicrobial activity of RNPA1000 was performed by the microdilution method as described above, except that cells were grown in Tryptic Soy Broth medium supplemented with 2.5 μM CdCl2 and 0, 1, 2, 4, 8, 16, 32, 64, or 128 μg/ml RNPA1000. Time-kill assays were also performed to monitor the antimicrobial properties of RNPA1000 for S. aureus strain UAMS-1 in the absence and presence of 0.25, 0.5, 2, and 4 times the strain's MIC for oxacillin (1 μg/ml), rifampicin (0.5 μg/ml), vancomycin (2 μg/ml), or daptomycin (1 μg/ml). The indicated amount of RNPA1000 and/or commercial antibiotic were added to mid-exponential phase (2×10^8 cfu/ml) S. aureus strain UAMS-1 cells and incubated at 37° C. Aliquots were removed at 0, 2, 4, 8, and 24 hr post-antimicrobial challenge, serial diluted, and plated to enumerate resulting cfu/ml. All time-kill assays were repeated at least 3 times.

S. aureus strain Smith = assay: acute lethal model of infection; type: in vivo, CD-1 mice; conditions: 5 days
Experimental: Because RNPA1000 was not toxic during short- and only mildly toxic during extended-HepG2 exposure, it could serve as an appropriate tool to assess whether RnpA-inhibitory molecules are efficacious in a systemic mouse infection model. […] RNPA1000 was solubilized in 1:1 mixture of DMSO and PEG400; Vancomycin was prepared in water. Animals (5/dose group) were administered 16, 64, and 256 mg/kg or 0.25, 1, 4, and 16 mg/kg of RNPA1000 or Vancomycin, respectively, at 30 min post infection by subcutaneous injection (0.2 ml). The percent surviving animals receiving no treatment, a single dose of Vancomycin, or RnpA-inhibitor was recorded daily over the course of the study (5 days).
Percent survival refers to a consensus of surviving animals following 5 days post-intraperitoneal S. aureus injection and RNPA1000 administration. The number in parentheses indicates the number of times the experiment was repeated. Each member of non-treated control mice expired within 24 hr bacterial inoculation (0 mg/kg). Vancomycin served as a positive control.

[1] = test system: biofilm-associated S. aureus strain UAMS-1; conditions: Weiss et al. 2009, cited from earlier work; for clearance of biofilm-associated S. aureus: 20× MIC over 3 days; for maximal decrease in biofilm-associated bacteria: same model and conditions

SMILES | MIC of commercial antibiotic (S. aureus (MSSA)) | % Survival (S. aureus strain Smith; Vancomycin 0.25 mg/kg s.c.) | % Survival (S. aureus strain Smith; Vancomycin 1 mg/kg s.c.) | % Survival (S. aureus strain Smith; Vancomycin 4 mg/kg s.c.) | % Survival (S. aureus strain Smith; Vancomycin 16 mg/kg s.c.) | clearance of biofilm-associated S. aureus [1] | maximal decrease in biofilm-associated bacteria [1]
CN[C@H](CC(C)C)C(=O)N[C@H]1C(=O)N[C@@H](CC(N)=O)C(=O)N[C@H]2C(=O)N[C@H]3C(=O)N[C@H](C(=O)N[C@H](C(=O)O)c4cc(O)cc(O)c4-c4cc3ccc4O)[C@H](O)c3ccc(c(Cl)c3)Oc3cc2cc(c3O[C@@H]2O[C@H](CO)[C@@H](O)[C@H](O)[C@H]2O[C@H]2C[C@](C)(N)[C@H](O)[C@H](C)O2)Oc2ccc(cc2Cl)[C@H]1O [Vancomycin, vancomycin, reference compound] | 2 µg/mL | 0% | 100% | 100% | 100% | none of these antibiotics cleared | 4 log
CCCCCCCCCC(=O)N[C@@H](Cc1c[nH]c2ccccc12)C(=O)N[C@H](CC(N)=O)C(=O)N[C@@H](CC(=O)O)C(=O)N[C@@H]1C(=O)NCC(=O)N[C@@H](CCCN)C(=O)N[C@@H](CC(=O)O)C(=O)N[C@H](C)C(=O)N[C@@H](CC(=O)O)C(=O)NCC(=O)N[C@H](CO)C(=O)N[C@@H]([C@H](C)CC(=O)O)C(=O)N[C@@H](CC(=O)c2ccccc2N)C(=O)O[C@@H]1C [daptomycin] | 1 µg/mL |  |  |  |  | none of these antibiotics cleared | 6 log
CC(=O)NC[C@H]1CN(c2ccc(N3CCOCC3)c(F)c2)C(=O)O1 [linezolid] |  |  |  |  |  | none of these antibiotics cleared | 5 log
Cc1onc(-c2ccccc2)c1C(=O)N[C@@H]1C(=O)N2[C@@H]1SC(C)(C)[C@@H]2C(=O)O [oxacillin] | 1 µg/mL |  |  |  |  |  | 
CO[C@H]1/C=C/O[C@@]2(C)Oc3c(C)c(O)c4c(O)c(c(/C=N/N5CCN(C)CC5)c(O)c4c3C2=O)NC(=O)/C(C)=C\C=C\[C@H](C)[C@H](O)[C@@H](C)[C@@H](O)[C@@H](C)[C@H](OC(C)=O)[C@@H]1C [rifampicin] | 0.5 µg/mL |  |  |  |  |  | 
